Where two headings read alike, the source gives them in different places.
Assays:
[1] = tested on: hypoxic-ischemic brain injury; conditions: mice; s.c. 135 mg/kg then two 68 mg/kg doses at 24-h intervals; cited from earlier work
[2] = Serum and CSF minocycline steady-state levels in SCI trial subjects
Description: Drug or placebo infusions were continued for a total of 14 doses i.e., for 7 days after injury (FIG. 1). All infusions were administered through a subclavian central venous catheter for a 30-min period.
Each sample was centrifuged at 2000 rpm for 5 min to separate cellular matter. The supernatant was flash frozen and stored at −80° C. in aliquots.

SCI [3] = conditions: rats; i.p. every 12 h for 3 days, 90 mg/kg then 30 mg/kg; cited from earlier work
[4] = Description: Subjects were evaluated for adverse events daily while in hospital and at each subsequent clinical evaluation. All serious adverse events (Table 4) were reviewed promptly by a safety monitoring board composed of clinicians and clinician researchers not otherwise involved in this study. A summary of all adverse events was reviewed every 6 months.
The model assumed that any change associated with treatment group was constant over these time points. An interaction term between treatment and injury type was included to allow for the possibility that changes associated with treatment group differed among motor-complete and motor-incomplete injured subjects. ASIA sensory scores were similarly evaluated. ASIA motor, pin-prick and light scores were evaluated by the Shapiro-Wilk normality test and were consistent with a normal distribution. Functional recovery data were compared over all data points. Adverse events were categorized by system and mean numbers of events per patient were compared within each system by ANOVA. All statistical tests were two-tailed (a=0.05). […] The Student t-test was then used to estimate the between group difference that this study was powered to detect with power=0.8 and a=0.05.

acute traumatic SCI = assay: ASIA sensory recovery (pinprick, light touch) after acute traumatic SCI; assay type: in vivo, human
Description: Clin. Exp. Pharmacol. Physiol. 1:299-308). […] Neurological function was assessed at intervals using the American Spinal Cord Injury Association (ASIA) standardized neurological examination and included the motor composites and sensory composites. These examinations were performed by a physical medicine and rehabilitation specialist at Day 1 (time of enrolment), Day 4, Day 5, Day 7, Week 3, Week 6, Week 12, Month 6, and Month 12 (Table 3). Day 1 scores were subtracted from each subsequent score to calculate improvement from baseline for graphing purposes. […] ASIA sensory scores were similarly evaluated. […] Functional recovery data were compared over all data points. […] All statistical tests were two-tailed (a=0.05).

SCI [5] = conditions: rats; three 30 mg/kg i.p. doses at 30 min, 60 min, 24 h after SCI; 28-day observation; cited from earlier work
[6] = 200 mg twice-daily intravenously
[7] = 800 mg loading dose tapered by 100 mg every 12 h to 400 mg, IV, 7 days
[8] = High dose (800 mg tapered by 100 mg each 12 h to 400 mg, 7 days)
[9] = Low dose (200 mg IV twice daily, 7 days)

CN(C)c1ccc(O)c2c1C[C@H]1C[C@H]3[C@H](N(C)C)C(O)=C(C(N)=O)C(=O)[C@@]3(O)C(O)=C1C2=O [minocycline, (2E,4S,4aR,5aS,12aR)-2-(amino-hydroxy-methylidene)-4,7-bis(dimethylamino)-10,11,12a-trihydroxy-4-a,5,5a,6-tetrahydro-4H-tetracene-1,3,12-trione]
effects of hypoxic-ischemic brain injury [1]: significantly exacerbated
CSF steady-state concentration [2, 6]: 1 µg/mL
time to serum steady state [2, 6]: ≤ 48 h
serum steady-state concentration ([2]; 200 mg twice-daily intravenously, first five patients): 4.2 µg/mL
time to serum and CSF steady state ([2]; 800 mg loading dose tapered by 100 mg every 12 h to 400 mg, IV): ≤ 24 h
CSF steady state [2, 7]: 2.3 µg/mL
serum steady-state concentration [2, 7]: 12.7 µg/mL
hindlimb motor function (SCI [3]): significantly increased
Autonomic dysreflexia: # of events [4, 8]: 1
Autonomic dysreflexia: # of subjects [4, 8]: 1
Cardiac: # of events [4, 8]: 14
Cardiac: # of subjects [4, 8]: 9
Deep venous thrombosis: # of events [4, 8]: 1
Deep venous thrombosis: # of subjects [4, 8]: 1
Deep venous thrombosis: events/subject [4, 8]: 0.06
Endocrine: # of events [4, 8]: 0
Endocrine: # of subjects [4, 8]: 0
Endocrine: events/subject [4, 8]: 0
Gastrointestinal: # of events [4, 8]: 36
Gastrointestinal: # of subjects [4, 8]: 12
Gastrointestinal: events/subject [4, 8]: 1.88
Genito-urinary: # of events [4, 8]: 7
Genito-urinary: # of subjects [4, 8]: 5
Genito-urinary: events/subject [4, 8]: 0.44
Haematological: # of events [4, 8]: 9
Haematological: # of subjects [4, 8]: 6
Haematological: events/subject [4, 8]: 0.63
Infectious: # of events [4, 8]: 28
Infectious: # of subjects [4, 8]: 11
Infectious: events/subject [4, 8]: 1.38
Integumentary: # of events [4, 8]: 21
Integumentary: # of subjects [4, 8]: 11
Integumentary: events/subject [4, 8]: 1.13
Musculoskeletal: # of events [4, 8]: 14
Musculoskeletal: # of subjects [4, 8]: 13
Musculoskeletal: events/subject [4, 8]: 0.75
Neurological: # of events [4, 8]: 16
Neurological: # of subjects [4, 8]: 10
Neurological: events/subject [4, 8]: 0.56
Other: # of events [4, 8]: 19
Other: # of subjects [4, 8]: 11
Pain: # of events [4, 8]: 31
Pain: # of subjects [4, 8]: 14
Psychiatric: # of events [4, 8]: 18
Psychiatric: # of subjects [4, 8]: 8
Psychiatric: events/subject [4, 8]: 1.13
Respiratory: # of events [4, 8]: 13
Respiratory: # of subjects [4, 8]: 9
Respiratory: events/subject [4, 8]: 0.81
Serious adverse events: # of events [4, 8]: 1
Serious adverse events: # of subjects [4, 8]: 1
Serious adverse events: events/subject [4, 8]: 0.06
Autonomic dysreflexia: # of events [4, 9]: 0
Autonomic dysreflexia: # of subjects [4, 9]: 0
Cardiac: # of events [4, 9]: 5
Cardiac: # of subjects [4, 9]: 4
Deep venous thrombosis: # of events [4, 9]: 0
Deep venous thrombosis: # of subjects [4, 9]: 0
Deep venous thrombosis: events/subject [4, 9]: 0
Endocrine: # of events [4, 9]: 1
Endocrine: # of subjects [4, 9]: 1
Endocrine: events/subject [4, 9]: 0.2
Gastrointestinal: # of events [4, 9]: 12
Gastrointestinal: # of subjects [4, 9]: 5
Gastrointestinal: events/subject [4, 9]: 2.2
Genito-urinary: # of events [4, 9]: 0
Genito-urinary: # of subjects [4, 9]: 0
Genito-urinary: events/subject [4, 9]: 0
Haematological: # of events [4, 9]: 2
Haematological: # of subjects [4, 9]: 2
Haematological: events/subject [4, 9]: 0.4
Infectious: # of events [4, 9]: 12
Infectious: # of subjects [4, 9]: 4
Infectious: events/subject [4, 9]: 1.8
Integumentary: # of events [4, 9]: 5
Integumentary: # of subjects [4, 9]: 4
Integumentary: events/subject [4, 9]: 1.0
Musculoskeletal: # of events [4, 9]: 4
Musculoskeletal: # of subjects [4, 9]: 4
Musculoskeletal: events/subject [4, 9]: 0.6
Neurological: # of events [4, 9]: 11
Neurological: # of subjects [4, 9]: 5
Neurological: events/subject [4, 9]: 1.6
Other: # of events [4, 9]: 13
Other: # of subjects [4, 9]: 5
Pain: # of events [4, 9]: 10
Pain: # of subjects [4, 9]: 5
Psychiatric: # of events [4, 9]: 8
Psychiatric: # of subjects [4, 9]: 4
Psychiatric: events/subject [4, 9]: 1.2
Respiratory: # of events [4, 9]: 5
Respiratory: # of subjects [4, 9]: 4
Respiratory: events/subject [4, 9]: 1.0
Serious adverse events: # of events [4, 9]: 1
Serious adverse events: # of subjects [4, 9]: 1
Serious adverse events: events/subject [4, 9]: 0.2
adverse events among placebo, low-dose and high-dose groups ([4]; low-dose (200 mg) or high-dose (400 mg) vs placebo): did not vary significantly
ASIA pinprick sensory recovery greater than placebo (acute traumatic SCI; all subjects, not statistically significant, P=0.15): nine
ASIA light-touch sensory recovery greater than placebo (acute traumatic SCI; all subjects, not statistically significant, P=0.27): seven
ASIA light-touch score higher than placebo (acute traumatic SCI; cervical motor-incomplete, P=0.20): 20 light-touch points
ASIA pinprick score higher than placebo (acute traumatic SCI; cervical motor-incomplete, P=0.49): 14 pinprick points
difference in sensory scores vs placebo (acute traumatic SCI; thoracic SCI): No difference
recovery in functional hind limb motor control (SCI [5]): facilitated significant recovery

— US20140274969A1 (priority 2013, published 2014)
